This note sets out measurements from ChEMBL document CHEMBL1147880, “beta-Alkylthio indolyl carbinols: potent nonsteroidal antiandrogens with oral efficacy in a prostate cancer model” (Bioorg Med Chem Lett, 2007).

Active and inactive are the calls of the source.

A word on the bioavailability: it is dose-corrected exposure relative to a reference, in per cent. What is called half-life is the time needed for the level to fall by half in the phase considered.

Data set [1] deals with Rattus norvegicus. Nature of the data set: Reduction of prostate weight in orally dosed immature rat. Type of data set: functional, Prostate gland. Set-up: Activity: scale not given: the % may be the effect or the level left.
The subject of data set [2] is Rattus norvegicus. Nature of the data set: Reduction of prostate weight in orally dosed mature rat. The following applies: Prostate gland, po, read-out: ID50 (the source's name). Format: functional.
In data set [3] the test system is Rattus norvegicus. Description: Reduction of prostate weight in orally dosed castrated mature rat. Type of data set: functional, organism-based. The following applies: Prostate gland.
A short description of data set [4]: Oral bioavailability in mature rat. Type of data set: ADME, organism-based. The following applies: in vivo.
Data set [5] in a line: Half life in mature rat. Type of data set: ADME, organism-based. The following applies: in vivo.
Another data set relates to LNCaP. Description: Inhibition of tumor growth in LNCaP cells xenografted mouse at 100 mg/kg, po after 51 days. Type of data set: functional, organism-based. Set-up: dose 100 mg/kg. The following applies: Homo sapiens.
Data set [6] concerns the target T1, Androgen receptor (Homo sapiens) (UniProt P10275).
T1 sequence (whole entry): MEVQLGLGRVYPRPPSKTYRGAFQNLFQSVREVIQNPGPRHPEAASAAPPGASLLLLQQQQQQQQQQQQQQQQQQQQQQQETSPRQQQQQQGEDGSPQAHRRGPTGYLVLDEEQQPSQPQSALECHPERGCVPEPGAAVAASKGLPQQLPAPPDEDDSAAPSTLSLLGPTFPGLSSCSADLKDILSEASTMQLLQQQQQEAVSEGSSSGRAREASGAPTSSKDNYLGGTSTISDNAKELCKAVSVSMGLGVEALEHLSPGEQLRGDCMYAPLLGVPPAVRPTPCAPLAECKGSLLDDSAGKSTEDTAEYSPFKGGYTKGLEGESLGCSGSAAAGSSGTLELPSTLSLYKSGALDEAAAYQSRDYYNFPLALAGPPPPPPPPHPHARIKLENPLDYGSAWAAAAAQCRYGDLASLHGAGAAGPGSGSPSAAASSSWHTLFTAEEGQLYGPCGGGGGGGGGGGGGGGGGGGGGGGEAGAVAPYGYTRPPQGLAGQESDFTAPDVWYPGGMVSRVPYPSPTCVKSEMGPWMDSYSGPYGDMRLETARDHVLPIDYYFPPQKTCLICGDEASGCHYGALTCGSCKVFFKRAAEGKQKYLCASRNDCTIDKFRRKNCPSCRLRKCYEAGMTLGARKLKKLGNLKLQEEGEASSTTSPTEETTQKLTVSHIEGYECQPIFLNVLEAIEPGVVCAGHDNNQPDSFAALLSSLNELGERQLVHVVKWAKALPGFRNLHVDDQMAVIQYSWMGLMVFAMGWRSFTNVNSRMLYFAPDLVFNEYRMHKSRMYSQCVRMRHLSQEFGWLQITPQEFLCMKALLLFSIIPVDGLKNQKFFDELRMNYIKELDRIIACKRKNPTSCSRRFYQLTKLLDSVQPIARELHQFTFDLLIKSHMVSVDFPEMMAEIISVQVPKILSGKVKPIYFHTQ
Nature of the data set: Binding affinity to AR expressed in COS cells by whole-cell binding assay. Type of data set: cell-based.

`CCSC[C@](C)(O)c1cc2ccccc2[nH]1` returned an Activity in the data set with Rattus norvegicus [1] of 26%. The same measure, in the same setting: then `CC(C)CSC[C@@](C)(O)c1cc2cc([N+](=O)[O-])c(C(F)(F)F)cc2[nH]1`, with 75%; and `CCSCC(O)(CSCC)c1cc2cc([N+](=O)[O-])c(C(F)(F)F)cc2[nH]1`, with 32%; and `CCCCSC[C@@](C)(O)c1cc2cc([N+](=O)[O-])c(C(F)(F)F)cc2[nH]1`, with 40%. `CCSC[C@](C)(O)c1cc2cc(C#N)c(C(F)(F)F)cc2n1C` yielded an Activity in the data set with Rattus norvegicus [1] of 43%.

Regarding `CC[S+]([O-])C[C@](C)(O)c1cc2cc(C#N)c(C(F)(F)F)cc2[nH]1` (some centres not stated), the Activity in the data set on Rattus norvegicus [1] was determined as 62%.

With `CCSC[C@](C)(O)c1cc2cc([N+](=O)[O-])ccc2[nH]1`, the Activity with Rattus norvegicus [1] stood at 34%. In the data set on Rattus norvegicus [1], `CCS(=O)(=O)C[C@](C)(O)c1cc2cc(C#N)c(C(F)(F)F)cc2[nH]1` came in with an Activity of 100% and an ID50 of 0.89 mg/day. Also, the ED50 in the data set on Rattus norvegicus [2] worked out at 22 mg/kg. The result with Rattus norvegicus [3] was inactive. Besides, in data set [4], the bioavailability is 68%. This molecule also had a half-life in data set [5] of 52 h. Also, the outcome with LNCaP was Active. Besides, the result in data set [6] was Active. As for `CCSC[C@](C)(O)c1cc2cc(Cl)c(C(F)(F)F)cc2[nH]1`, in the data set with Rattus norvegicus [1], the Activity worked out at 54%. As for `C[C@@](O)(CSCc1cccs1)c1cc2cc([N+](=O)[O-])c(C(F)(F)F)cc2[nH]1`, in the data set on Rattus norvegicus [1], the Activity was 28%.

For the molecule `CCSC[C@](C)(O)c1[nH]c2cc(C(F)(F)F)c(C#N)cc2c1C`, in the data set on Rattus norvegicus [1], the Activity stood at 61%. Moreover, in the data set with Rattus norvegicus [2], the ED50 is greater than 60 mg/kg. Molecule `CCSC[C@](C)(O)c1cc2cc(C#N)c(C(F)(F)F)cc2n1CC` gave an Activity in the data set on Rattus norvegicus [1] of 55%.

In the data set with Rattus norvegicus [1], `CCSCC(O)c1cc2cc([N+](=O)[O-])c(C(F)(F)F)cc2[nH]1` (configuration not stated) displayed an Activity of 30%. On to `CCSC[C@](C)(O)c1cc2cc(C#N)ccc2[nH]1`, for which the result with Rattus norvegicus [1] (Prostate gland) was inactive. On the same count and under the same terms, then `CCSC[C@](C)(O)c1cc2cc(C#N)ncc2[nH]1`, with “inactive”. As to `CCSC[C@](C)(O)c1cc2cc(F)c(Cl)cc2[nH]1`, the Activity with Rattus norvegicus [1] came to 60%. On to `CCSCC(C)(O)Cc1cc2cc([N+](=O)[O-])c(C(F)(F)F)cc2[nH]1` (configuration not stated), for which the result in the data set on Rattus norvegicus [1] (Prostate gland) was inactive.

For `CCc1c([C@@](C)(O)CS(=O)(=O)CC)[nH]c2cc(C(F)(F)F)c(C#N)cc12`, in the data set on Rattus norvegicus [1], the ID50 amounted to 1.4 mg/day. In data set [5], the half-life is 0.9 h. `CCSC[C@](O)(CC)c1cc2cc([N+](=O)[O-])c(C(F)(F)F)cc2[nH]1` registered an Activity in the data set on Rattus norvegicus [1] of 73%. Still for that read-out and setting: for `CCSC[C@](C)(O)c1cc2cc(C#N)c(C(F)(F)F)cc2n1CC(F)(F)F` the value was 53%. With `CCSC[C@](C)(O)c1cc2cc(Cl)c(Cl)cc2[nH]1`, the outcome in the data set on Rattus norvegicus [1] (Prostate gland) was inactive. For the molecule `CCCSC[C@@](C)(O)c1cc2cc([N+](=O)[O-])c(C(F)(F)F)cc2[nH]1`, the Activity in the data set with Rattus norvegicus [1] is 40%.

Consider `CC(C)SC[C@@](C)(O)c1cc2cc([N+](=O)[O-])c(C(F)(F)F)cc2[nH]1`, for which the Activity in the data set on Rattus norvegicus [1] was 42%. On the same count and under the same terms, then `CCSC[C@@](C)(OC)c1cc2cc([N+](=O)[O-])c(C(F)(F)F)cc2[nH]1`, with 76%; and `C[C@@](O)(CSCc1ccco1)c1cc2cc([N+](=O)[O-])c(C(F)(F)F)cc2[nH]1`, with 46%. Turning to `CCSC[C@](C)(O)c1cc2cc(C#N)c(C)cc2[nH]1`, the outcome with Rattus norvegicus [1] (Prostate gland) was inactive. In the data set on Rattus norvegicus [1], `CCSC[C@](C)(O)c1cc2cc(C)c(C(F)(F)F)cc2[nH]1` had an Activity of 22%. In the data set on Rattus norvegicus [1], `CCSC[C@](C)(O)c1cc2cc(C#N)c(C(F)(F)F)cc2[nH]1` [listing 1 of 2 here] yielded an Activity of 100% and an ID50 of 0.44 mg/day. Besides, in the data set on Rattus norvegicus [2], the ED50 turned out to be 22 mg/kg.

As to `CCSC[C@](C)(O)c1cc2cc(C#N)c(C(F)(F)F)cc2[nH]1` [listing 2 of 2 here], the Activity with Rattus norvegicus [1] worked out at 100%. On the same count and under the same terms, then `CCSC[C@](C)(O)c1cc2cc([N+](=O)[O-])c(C(F)(F)F)cc2o1`, with 38%. `O=[N+]([O-])c1cc2cc(C3(O)CCSC3)[nH]c2cc1C(F)(F)F` (configuration not stated) returned an Activity in the data set on Rattus norvegicus [1] of 49%. On the same count and under the same terms, for `CCSC[C@](C)(O)c1cc2cc(F)c(C(F)(F)F)cc2[nH]1` the value was 58%. In turn, `CCS(=O)(=O)C[C@](C)(O)c1[nH]c2cc(C(F)(F)F)c(C#N)cc2c1C` had an ID50 in the data set with Rattus norvegicus [1] of 2.4 mg/day. Further, in the data set with Rattus norvegicus [2], the ED50 was greater than 30 mg/kg. The half-life in data set [5] is 2 h.

For the molecule `CC(O)(CS(=O)(=O)c1ccc(F)cc1)C(=O)Nc1ccc(C#N)c(C(F)(F)F)c1` (configuration not stated) [BICALUTAMIDE], in the data set on Rattus norvegicus [1], the Activity is 75% and the ID50 is recorded as 0.44 mg/day. Moreover, the ED50 in the data set with Rattus norvegicus [2] is greater than 44 mg/kg. In the data set with Rattus norvegicus [1], `CCSC[C@@](C)(O)c1cc2cc([N+](=O)[O-])c(C(F)(F)F)cc2[nH]1` returned an Activity of 75%. As for `CCSC[C@](C)(O)c1cc2cc(C#N)c(C(F)(F)F)cc2n1CC#N`, in the data set with Rattus norvegicus [1] (Prostate gland), the result was inactive. In turn, `CCSC[C@](C)(O)c1cc2cc(C#N)c(C(F)(F)F)cc2n1COC` displayed an Activity with Rattus norvegicus [1] of 37%.

Consider `CSC[C@@](C)(O)c1cc2cc([N+](=O)[O-])c(C(F)(F)F)cc2[nH]1`, for which the Activity in the data set on Rattus norvegicus [1] came to 66%.

Molecule `CCSC[C@](C)(O)c1cc2cc(C#N)c(Cl)cc2[nH]1` registered an Activity with Rattus norvegicus [1] of 83%. For the molecule `CCSC[C@](C)(O)c1cc2cc(Cl)ccc2[nH]1`, the result in the data set on Rattus norvegicus [1] (Prostate gland) was inactive. The same measure, in the same setting: for `CCSC[C@@](C)(O)c1cc2cc(C#N)c(C(F)(F)F)cc2[nH]1` the value was “inactive”; for `CCSC[C@](C)(O)c1cc2cc(N)c(C(F)(F)F)cc2[nH]1`, “inactive”.

In the data set with Rattus norvegicus [1], `C[C@@](O)(CSCc1ccccc1)c1cc2cc([N+](=O)[O-])c(C(F)(F)F)cc2[nH]1` gave an Activity of 54%.

`CCSCC(C)(O)c1cc2cc([N+](=O)[O-])cc(C(F)(F)F)c2[nH]1` (configuration not stated): in the data set on Rattus norvegicus [1], the Activity worked out at 66%. In the case of `CCSC[C@](C)(O)c1cc2cc(C#N)c(OC)cc2[nH]1`, in the data set on Rattus norvegicus [1] (Prostate gland), the result was inactive. In the data set on Rattus norvegicus [1], `C[C@@](O)(CSCC(F)(F)F)c1cc2cc([N+](=O)[O-])c(C(F)(F)F)cc2[nH]1` came in with an Activity of 46%. Still for that read-out and setting: for `CSCC[C@@](C)(O)c1cc2cc([N+](=O)[O-])c(C(F)(F)F)cc2[nH]1` the value was 44%.
